Consider 37 molecules from US20230399358A1, “IMMUNOGLOBULIN PURIFICATION PEPTIDES AND THEIR USE” (North Carolina State University, priority 2019, published 2023).

Non-standard residues stand in square brackets, D forms with d. No end group written: not given here. Cit = NC(=O)NCCC[C@H](N)C(=O)O; Nle = CCCC[C@H](N)C(=O)O

In the first test the target is human polyclonal IgG (human). In words: batch incubation of peptide-Toyopearl resin with human IgG, Bradford of unbound IgG; mg IgG bound relative to WQRHGI.
Conditions: not given
Regarding WNRHGI [WNRHGI (SEQ ID NO:12)], the % Binding was 77.4%.
Molecule FQRHGI [FQRHGI (SEQ ID NO:29)] gave a % Binding of 37.2%.
Regarding WQRAGI [WQRAGI (SEQ ID NO:28)], the % Binding is 62.8%.
In the case of WQRHGV [WQRHGV (SEQ ID NO:10)], the % Binding amounted to 96%.
Same read-out and setting: under WQ[Cit]HGI [WQ(Cit)HGI (SEQ ID NO:27)] stands 0.95%; under WQRHAI [WQRHAI (SEQ ID NO:11)], 95.4%; under WQRHI [WQRHI (SEQ ID NO:33)], 86.9%.
In turn, WQRHGL [WQRHGL (SEQ ID NO:9)] registered a % Binding of 99.1%.

Another test relates to human polyclonal IgG in CHO-S cell culture fluid. In words: Static purification of IgG from CHO cell culture supernatant on peptide-Toyopearl resins, SDS-PAGE densitometry. The note with it: Gel A, lane FT (flow-through). Here is the method:
(§1) Measurement of IgG binding by peptide-based chromatographic adsorbents: For initial studies, 35 mg of MWRGWQ (SEQ ID NO:2)-Toyopearl, RHLGWF (SEQ ID NO:3)-Toyopearl, WQRHGI (SEQ ID NO:1)-Toyopearl, GWLHQR (SEQ ID NO:4)-Toyopearl, and HWRGWV (SEQ ID NO:18)-Toyopearl (control) resins were equilibrated in PBS pH 7.4, reaching a swollen volume of 0.1 mL, and subsequently incubated with 1 mg/mL IgG in 0.205 mg/mL CHO cell culture supernatant for 30 minutes. The resins were subsequently washed several times with PBS to remove non-specifically bound proteins. Elution was performed with 100 mM glycine buffer pH 2.5. Flowthrough and elution fractions were collected and analyzed by SDS PAGE under reducing conditions. The resulting gels were stained with Coomassie staining. Further, 25 mg of the adsorbents MWRGWQ (SEQ ID NO:2)-Toyopearl, NIFRGWQ (SEQ ID NO:21)-Toyopearl, MWRAWQ (SEQ ID NO:5)-Toyopearl, MWRGFQ (SEQ ID NO:7)-Toyopearl, MWRGWN (SEQ ID NO:22)-Toyopearl, (NorL) WRGWQ (SEQ ID NO:23)-Toyopearl, MGRGWQ (SEQ ID NO:24)-Toyopearl, MWRWQ (SEQ ID NO:6)-Toyopearl, MWRGGQ (SEQ ID NO:26)-Toyopearl, GWRGWQ (SEQ ID NO:8)-Toyopearl, WQRHGI (SEQ ID NO:1)-Toyopearl, WNRHGI (SEQ ID NO:12)-Toyopearl, WQRAGI (SEQ ID NO:28)-Toyopearl, WQRHAI (SEQ ID NO:11)-Toyopearl, WQRHGL (SEQ ID NO:9)-Toyopearl, FQRHGI (SEQ ID NO:29)-Toyopearl, and WQRHGV (SEQ ID NO:10)-Toyopearl resins were equilibrated in PBS pH 7.4, reaching a swollen volume of 0.1 mL, and subsequently incubated with 1 mg/mL IgG in PBS at pH 7.4 for 30 minutes. The amount of unbound IgG in the supernatant samples was quantified by Bradford assay and utilized to determine the IgG binding % by the peptide variants.
Characterization of IgG-binding peptide variants WQRHGI (SEQ ID NO:1), MWRGWQ (SEQ ID NO:2), RHLGWF (SEQ ID NO:3), and GWLHQR (SEQ ID NO:4) in competitive conditions: The four selected sequence variants were tested for their ability to purify human IgG from a CHO cell culture supernatant and found largely to mirror their in silico predictions. Even though they seemed to underperform in silico, RHLGWF (SEQ ID NO:3) and GWLHQR (SEQ ID NO:4) were tested alongside WQRHGI (SEQ ID NO:1) and MWRGWQ (SEQ ID NO:2) in these conditions in order to confirm their ability to bind IgG and examine their selectivity as predicted in silico. The feedstock was prepared by spiking human polyclonal IgG into a clarified null CHO-S cell culture fluid to obtain an IgG concentration of 1 mg/mL and a CHO HCP concentration of 0.205 mg/mL. An aliquot of 500 μL was loaded onto each peptide adsorbent in static conditions for 30 min. Following a washing step with PBS to remove loosely bound proteins, a first elution step was conducted using 0.1 M glycine buffer pH 2.5 to remove all bound proteins. Flow through fractions and pH 2.5 elution fractions were loaded neat and analyzed by SDS PAGE (FIGS. 6A-6B). The values of IgG purity in the eluted fractions were determined by densitometric analysis of the corresponding lanes on the gels, and are reported in Table 9.
Take RHLGWF: the “% Purity (IgG over total proteins)” value was 100.00%.

The same test, now with this note: Gel A, lane R (pH 2.5).
As for RHLGWF, the “% Purity (IgG over total eluted proteins)” value amounted to 52.28%.

The same test, now with this note: competitive conditions, CHO cell culture supernatant.
For RHLGWF, the IgG yield result is on record as “high IgG yield”.

The test is the same for the next values; noted with them: competitive conditions, in vitro.
For the molecule RHLGWF, the “selectivity for IgG over HCPs” value is on record as “non-selective”.

The test system of another test is host cell protein (HCP).
Experiment: not given
The note with it: literature value; cited from earlier work.
For Ac-HW[Cit]GWV, the “HCP LRV” value is given as 2.07.

A further test has as its system human IgG.
Experiment: not given
It counts as binding. The note with it: peptide on Toyopearl AF-amino-650M, 30 min, room temperature. Here is the method:
as §1
A limited library of residue-by-residue changes confirmed the importance of each residue in peptides WQRHGI (SEQ ID NO:1) and MWRGWQ (SEQ ID NO:2) in reducing the binding energy between the peptide and the IgG target. […] This was accomplished by designing and constructing an ensemble of 20 variants of peptides WQRHGI (SEQ ID NO:1) and MWRGWQ (SEQ ID NO:2). Selected residues in positions 1-6 were mutated. The peptide variants were synthesized directly on Toyopearl AF-amino-650M resin via Fmoc/tBu chemistry. The resulting adsorbents were incubated with a solution of human IgG at 2 mg/mL at a ratio of 1 mL of resin per 3.5 mL of solution for 30 min at room temperature. The residual concentration of IgG in solution was determined by Bradford concentration assay of the supernatants and utilized to calculate the amounts of bound IgG per volume of resin; Table 7 reports the % binding, defined as mg IgG bound by variant/mg IgG bound by original sequence (either WQRHGI (SEQ ID NO:1) or MWRGWQ (SEQ ID NO:2))×100%, of each sequence variant.
Take “(NorL)WRGWQ ([Nle]WRGWQ) [ΛWRGWQ, Λ represents Nor-Leucine]”: the “% Binding (mg IgG bound by variant/mg IgG bound by original sequence × 100%)” value stood at 74.66%.
Still for that read-out and setting: under FQRHGI stands 37.18%; under GWRGWQ, 78.37%.
MFRGWQ: the “% Binding (mg IgG bound by variant/mg IgG bound by original sequence × 100%)” value was determined as 56.75%.
Same read-out and setting: for MGRGWQ the value was “Undetected”; for MW(Cit)GWQ (MW[Cit]GWQ) [MWχGWQ], 0.48%.
Same read-out and setting: under MWRAWQ stands 96.96%; under MWRGFQ [MWRGEQ], 89.19%.
MWRGGQ: the “% Binding (mg IgG bound by variant/mg IgG bound by original sequence × 100%)” value came to 26.00%.
Take MWRGWN: the “% Binding (mg IgG bound by variant/mg IgG bound by original sequence × 100%)” value was determined as 18.90%.
As for MWRWQ, the “% Binding (mg IgG bound by variant/mg IgG bound by original sequence × 100%)” value is given as 91.55%.
Same read-out and setting: under WNRHGI stands 77.43%; under WQ(Cit)HGI (WQ[Cit]HGI) [WQχHGI], 0.95%.
The same measure, in the same setting: under WQRAGI stands 62.80%; under WQRHAI, 95.43%; under WQRHGL, 99.09%.
Same read-out and setting: under WQRHGV stands 96.04%.
As for WQRHI, the “% Binding (mg IgG bound by variant/mg IgG bound by original sequence × 100%)” value is given as 86.89%.

In a further test the target is human polyclonal IgG (human). In words: batch incubation of peptide-Toyopearl resin with human IgG, Bradford of unbound IgG; mg IgG bound relative to MWRGWQ.
Conditions: not given
For the molecule GWRGWQ [GWRGWQ (SEQ ID NO:8)], the % Binding is 78.4%.
The same measure, in the same setting: for MWRAWQ [MWRAWQ (SEQ ID NO:5)] the value was 97%; for [Nle]WRGWQ [(NorL)WRGWQ (SEQ ID NO:23)], 74.7%.
In turn, MWRWQ [MWRWQ (SEQ ID NO:6)] gave a % Binding of 91.5%.
In turn, MW[Cit]GWQ [MW(Cit)GWQ (SEQ ID NO:25)] gave a % Binding of 0.48%.
On the same count and under the same terms, under MWRGWN [MWRGWN (SEQ ID NO:22)] stands 18.9%; under MWRGGQ [MWRGGQ (SEQ ID NO:26)], 26%.
With MFRGWQ [MFRGWQ (SEQ ID NO:21)], the % Binding came out at 56.8%.
Turning to MWRGFQ [MWRGFQ (SEQ ID NO:7)], the % Binding is 89.2%.
